These results are taken from patent publication US20200247800A1, “SUBSTITUTED BICYCLIC HETEROCYCLIC COMPOUNDS AS NADPH OXIDASE INHIBITORS” (Glenmark Pharmaceuticals S.A., priority 2017, published 2020).

The target of this test is T1, human NOX4 (Homo sapiens, UniProt Q9NPH5).
T1 construct: expressed in transfected cells; membrane fraction used
T1 sequence (Q9NPH5 1-578): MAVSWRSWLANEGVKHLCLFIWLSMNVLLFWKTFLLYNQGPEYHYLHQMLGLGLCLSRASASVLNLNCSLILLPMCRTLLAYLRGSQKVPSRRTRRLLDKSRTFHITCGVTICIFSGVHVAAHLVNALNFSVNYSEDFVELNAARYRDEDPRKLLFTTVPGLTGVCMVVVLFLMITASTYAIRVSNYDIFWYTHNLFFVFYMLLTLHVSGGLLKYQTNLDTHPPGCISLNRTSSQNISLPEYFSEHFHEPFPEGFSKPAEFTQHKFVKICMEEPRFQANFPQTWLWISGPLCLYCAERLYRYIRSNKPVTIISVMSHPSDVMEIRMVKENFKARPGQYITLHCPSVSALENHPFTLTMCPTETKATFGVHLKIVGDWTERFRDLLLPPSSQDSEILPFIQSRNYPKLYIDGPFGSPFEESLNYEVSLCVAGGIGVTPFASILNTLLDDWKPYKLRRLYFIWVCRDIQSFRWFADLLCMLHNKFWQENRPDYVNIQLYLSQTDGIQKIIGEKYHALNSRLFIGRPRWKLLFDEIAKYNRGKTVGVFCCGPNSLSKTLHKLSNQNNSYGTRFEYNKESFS
T1 sequence (P13498 1-195 partner): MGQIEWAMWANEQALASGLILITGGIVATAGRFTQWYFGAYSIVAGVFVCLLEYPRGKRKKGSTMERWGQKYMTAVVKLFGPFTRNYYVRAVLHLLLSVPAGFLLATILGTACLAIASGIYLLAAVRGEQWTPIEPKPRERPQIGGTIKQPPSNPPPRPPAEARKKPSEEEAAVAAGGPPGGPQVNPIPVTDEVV
Kind of test: Cell free membrane based in vitro NOX4 assay: H2O2 production by membranes expressing human NOX4, measured with Amplex Red. The settings on record: for inhibition at 1 µM: 1.0 μM compound, read-out: Percentage inhibition at 1.0 μM; for IC50: class symbols; for inhibition at 10 µM: 10.0 μM compound, read-out: Percentage inhibition at 10.0 μM. The test is classed as biochemical. A digest of the protocol: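 IC50 came from concentration-response curves fitted as % of the inhibitor-free maximum. H2O2 formation was monitored for 10 min via Amplex Red/HRP fluorescence (544/590 nm) after NADPH start. Membranes from a stable hNOX4/HEK line had 20 min exposure to inhibitor beforehand at pH 7.4.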

As a reminder, the inhibition is the drop in the measured response relative to a control, in per cent. Usually IC50 stands for the midpoint of a concentration-inhibition curve. Low values mean greater potency, high ones weaker potency.

Regarding `CCc1nn(C)c2[nH]c(-c3ccc(F)cc3F)c(O)c(=O)c12` [Example 161, 6-(2,4-Difluorophenyl)-3-ethyl-5-hydroxy-1-methyl-1H-pyrazolo[3,4-b]pyridin-4(7H)-one], the inhibition at 1 µM worked out at 71.6% and the IC50 was greater than 150 nM.
The like results for `CCc1nn(C)c2[nH]c(-c3cc(F)cc(F)c3)c(O)c(=O)c12` [Example 162, 6-(3,5-Difluorophenyl)-3-ethyl-5-hydroxy-1-methyl-1H-pyrazolo[3,4-b]pyridine-4(7H)-one] were, in that order, 74.8% and greater than 150 nM.
On the same counts, the results for `CCc1nn(C)c2[nH]c(-c3cc(F)ccc3F)c(O)c(=O)c12` [Example 163, 6-(2,5-Difluorophenyl)-3-ethyl-5-hydroxy-1-methyl-1H-pyrazolo[3,4-b]pyridine-4(7H)-one] are 72.8% and greater than 150 nM.
For the molecule `CCc1nn(CCN2CCOCC2)c2[nH]c(-c3cccc(C(F)(F)F)c3F)c(O)c(=O)c12` [Example 164, 3-Ethyl-6-(2-fluoro-3-(trifluoromethyl)phenyl)-5-hydroxy-1-(2-morpholinoethyl)-1H-pyrazolo[3,4-b]pyridin-4(7H)-one], the IC50 was greater than 150 nM.
On to `CCc1nn(CCN2CCN(C)CC2)c2[nH]c(-c3ccccc3Cl)c(O)c(=O)c12` [Example 165, 6-(2-Chlorophenyl)-3-ethyl-5-hydroxy-1-(2-(4-methylpiperazin-1-yl)ethyl)-1H-pyrazolo[3,4-b]pyridine-4(7H)-one], for which the inhibition at 1 µM turned out to be 99.9%, the inhibition at 10 µM was 80.1% and the IC50 is less than 50 nM.
On the same counts, the results for `CCc1nn(CCN2CCN(C)CC2)c2[nH]c(-c3c(F)cccc3F)c(O)c(=O)c12` [Example 166, 6-(2,6-Difluorophenyl)-3-ethyl-5-hydroxy-1-(2-(4-methylpiperazin-1-yl)ethyl)-1H-pyrazolo[3,4-b]pyridine-4(7H)-one] are 96.4%, 95.5% and less than 50 nM.
Consider `CCc1nn(CCN2CCOCC2=O)c2[nH]c(-c3ccccc3Cl)c(O)c(=O)c12` [Example 167, 4-(2-(6-(2-Chlorophenyl)-3-ethyl-5-hydroxy-4-oxo-4,7-dihydro-1H-pyrazolo[3,4-b]pyridin-1-yl)ethyl)morpholin-3-one], for which the inhibition at 1 µM is 86%, the inhibition at 10 µM was determined as 71.8% and the concentration for half-maximal inhibition (IC50) lay in the range of 50 to 100 nM.
The like results for `CCc1nn(CCN2CCOCC2=O)c2[nH]c(-c3c(F)cccc3F)c(O)c(=O)c12` [Example 168, 4-(2-(6-(2,6-Difluorophenyl)-3-ethyl-5-hydroxy-4-oxo-4,7-dihydro-1H-pyrazolo[3,4-b]pyridin-1-yl)ethyl)morpholin-3-one] were, in that order, 94.9%, 93.5% and 50 to 100 nM.
Consider `Cc1nn(CCN2CCN(C)CC2)c2[nH]c(-c3c(F)cccc3F)c(O)c(=O)c12` [Example 169, 6-(2,6-Difluorophenyl)-5-hydroxy-3-methyl-1-(2-(4-methylpiperazin-1-yl)ethyl)-1H-pyrazolo[3,4-b]pyridin-4(7H)-one], for which the inhibition at 1 µM amounted to 83.7% and the IC50 lay within 50 to 100 nM.
On the same counts, the results for `CCCn1nc(CC)c2c(=O)c(O)c(-c3ccc(F)cc3F)[nH]c21` [Example 170, 6-(2,4-Difluorophenyl)-3-ethyl-5-hydroxy-1-propyl-1H-pyrazolo[3,4-b]pyridin-4(7H)-one] are 74.4% and greater than 150 nM.
On the same counts, the results for `CCc1nn(CCN2CCN(CC)CC2)c2[nH]c(-c3c(F)cccc3F)c(O)c(=O)c12` [Example 172, 6-(2,6-Difluorophenyl)-3-ethyl-1-(2-(4-ethylpiperazin-1-yl)ethyl)-5-hydroxy-1H-pyrazolo[3,4-b]pyridin-4(7H)-one] are 80.9% and greater than 150 nM.
On to `CCc1nn(CCN2CCN(CC)CC2)c2[nH]c(-c3ccccc3Cl)c(O)c(=O)c12` [Example 173, 6-(2-Chlorophenyl)-3-ethyl-1-(2-(4-ethylpiperazin-1-yl)ethyl)-5-hydroxy-1H-pyrazolo[3,4-b]pyridin-4(7H)-one], for which the inhibition at 1 µM is 76.1%, the inhibition at 10 µM came to 69.7% and the IC50 was greater than 150 nM.
For the molecule `CCc1nn(CCCN2CCOCC2)c2[nH]c(-c3cccc(C(F)(F)F)c3F)c(O)c(=O)c12` [Example 174, 3-Ethyl-6-(2-fluoro-3-(trifluoromethyl)phenyl)-5-hydroxy-1-(3-morpholinopropyl)-1H-pyrazolo[3,4-b]pyridin-4(7H)-one], the inhibition at 1 µM was 85.6% and the 50% inhibitory concentration (IC50) was 100 to 150 nM.
As for `CCc1nn(CCCN2CCOCC2)c2[nH]c(-c3c(F)cccc3F)c(O)c(=O)c12` [Example 175, 6-(2,6-Difluorophenyl)-3-ethyl-5-hydroxy-1-(3-morpholinopropyl)-1H-pyrazolo[3,4-b]pyridin-4(7H)-one], the inhibition at 1 µM came to 84%, the inhibition at 10 µM turned out to be 81.3% and the IC50 lay in the range of 100 to 150 nM.
As for `CCc1nn(CCCN2CCOCC2)c2[nH]c(-c3ccc(F)cc3F)c(O)c(=O)c12` [Example 176, 6-(2,4-Difluorophenyl)-3-ethyl-5-hydroxy-1-(3-morpholinopropyl)-1H-pyrazolo[3,4-b]pyridin-4(7H)-one], the inhibition at 1 µM was 81.3% and the IC50 is greater than 150 nM.
Consider `Cc1nn(CCN2CCNCC2)c2[nH]c(-c3ccccc3Cl)c(O)c(=O)c12` [Example 177, 6-(2-Chlorophenyl)-5-hydroxy-3-methyl-1-(2-(piperazin-1-yl)ethyl)-1H-pyrazolo[3,4-b]pyridin-4(7H)-one], for which the inhibition at 1 µM is 68.6%, the inhibition at 10 µM came out at 50.1% and the IC50 was greater than 150 nM.
Turning to `Cc1nn(CCN2CCN(C)CC2)c2[nH]c(-c3cccc(C(F)(F)F)c3F)c(O)c(=O)c12` [Example 178, 6-(2-fluoro-3-(trifluoromethyl)phenyl)-5-hydroxy-3-methyl-1-(2-(4-methylpiperazin-1-yl)ethyl)-1H-pyrazolo[3,4-b]pyridin-4(7H)-one], the inhibition at 1 µM was 89% and the IC50 is greater than 150 nM.
On the same counts, the results for `CCc1nn(CCN2CCN(C)CC2)c2[nH]c(-c3cccc(C(F)(F)F)c3F)c(O)c(=O)c12` [Example 179, 3-Ethyl-6-(2-fluoro-3-(trifluoromethyl)phenyl)-5-hydroxy-1-(2-(4-methylpiperazin-1-yl)ethyl)-1H-pyrazolo[3,4-b]pyridin-4(7H)-one] are 92.3% and 100 to 150 nM.
On to `CCc1nn(CCC(C)C)c2[nH]c(-c3c(F)cccc3F)c(O)c(=O)c12` [Example 180, 6-(2,6-Difluorophenyl)-3-ethyl-5-hydroxy-1-isopentyl-1H-pyrazolo[3,4-b]pyridin-4(7H)-one], for which the inhibition at 1 µM was 100%, the inhibition at 10 µM came to 100% and the concentration for half-maximal inhibition (IC50) is less than 50 nM.
Take `CCc1nn(CCC(C)C)c2[nH]c(-c3ccccc3Cl)c(O)c(=O)c12` [Example 181, 6-(2-Chlorophenyl)-3-ethyl-5-hydroxy-1-isopentyl-1H-pyrazolo[3,4-b]pyridin-4(7H)-one]: the inhibition at 1 µM was 100%, the inhibition at 10 µM was 100% and the half-maximal inhibitory concentration (IC50) fell in the range of 50 to 100 nM.
Turning to `CCCn1nc(CO)c2c(=O)c(O)c(-c3c(F)cccc3F)[nH]c21` [Example 182, 6-(2,6-Difluorophenyl)-5-hydroxy-3-(hydroxymethyl)-1-propyl-1H-pyrazolo[3,4-b]pyridin-4(7H)-one], the inhibition at 1 µM stood at 100%, the inhibition at 10 µM was found to be 100% and the IC50 lay in the range of 50 to 100 nM.
Regarding `O=c1c(O)c(-c2c(F)cccc2F)[nH]c2c1c(CO)nn2C1CC1` [Example 183, 1-Cyclopropyl-6-(2,6-difluorophenyl)-5-hydroxy-3-(hydroxymethyl)-1H-pyrazolo[3,4-b]pyridin-4(7H)-one], the inhibition at 1 µM came to 84.2%, the inhibition at 10 µM was found to be 97.1% and the IC50 lay within 100 to 150 nM.
The like results for `CCc1nn(CCN2CCOC(C)(C)C2=O)c2[nH]c(-c3c(F)cccc3F)c(O)c(=O)c12` [Example 184, 4-(2-(6-(2,6-Difluorophenyl)-3-ethyl-5-hydroxy-4-oxo-4,7-dihydro-1H-pyrazolo[3,4-b]pyridin-1-yl)ethyl)-2,2-dimethylmorpholin-3-one] were, in that order, 78.8%, 81.6% and greater than 150 nM.
In the case of `Cn1nc(C2CCN(S(C)(=O)=O)CC2)c2c(=O)c(O)c(-c3c(F)cccc3F)[nH]c21` [Example 185, 6-(2,6-Difluorophenyl)-5-hydroxy-1-methyl-3-(1-(methylsulfonyl)piperidin-4-yl)-1H-pyrazolo[3,4-b]pyridin-4(7H)-one], the inhibition at 1 µM is 80.1%, the inhibition at 10 µM came to 78.2% and the IC50 was in the range of 50 to 100 nM.
